Data on three compounds can be found in EPA's ToxValDB 9.5 (doi:10.2903/j.efsa.2019.5821).

One series deals with Oncorhynchus mykiss. The settings on record: acute; duration: 96 hours; mortality.
A further series relates to Oryctolagus sp. The settings on record: developmental; development.
For the next series, the system named is Rattus norvegicus. The settings on record: for NOAEL: body weight.
For the next series, the system named is Typhlodromus pyri. In words: LR50; higher = less toxic. The settings on record: not reported; mortality.
A further series has as its system Tagia sp. The settings on record: chronic/long-term; duration: 56 days; reproduction.
In the next series the test system is Daphnia magna. The settings on record: chronic/long-term; duration: 21 days; reproduction.
A further series concerns Apis mellifera. The settings on record: acute, mortality.
The next series deals with Folsomia candida. The settings on record: chronic/long-term; duration: 28 days; mortality.
The test system of another series is Mus musculus. The settings on record: chronic; duration: 18 months; body weight.

The term NOAEL denotes the highest dose or exposure tested at which no adverse effect was seen.

The structures appear in SMILES notation. Values after ≈ are worked out from the molar mass of the structure shown. A value given as a limit tells only on which side of the number the result lay.

Turning to `Cn1cc(C(=O)O)c(C(F)F)n1` [3-(Difluoromethyl)-1-methyl-1H-pyrazole-4-carboxylic acid], in the series on Oncorhynchus mykiss, the LC50 was greater than 100 µg/mL. The same compound returned a no-observed-adverse-effect level (NOAEL) with Oryctolagus sp. of 250 mg/kg-day.
In the series on Rattus norvegicus (short-term, duration: 28 days), `Cn1cc(C(N)=O)c(C(F)F)n1` [3-(Difluoromethyl)-1-methyl-1H-pyrazole-4-carboxamide] had an NOAEL of 37.4 mg/kg-day.
Compound `CON(C(=O)c1cn(C)nc1C(F)F)C(C)Cc1c(Cl)cc(Cl)cc1Cl` (configuration not stated) [Pydiflumetofen] had an LR50 with Typhlodromus pyri greater than 408 g/ha. Moreover, the NOEC was 15.9 mg/kg in the series with Tagia sp., 0.042 mg/L in the series on Daphnia magna, 90.1 mg/kg-day with Colinus virginianus (reproduction developmental) and 186 mg/kg in the series on Folsomia candida. In addition, the LD50 in the series on Rattus norvegicus (acute, oral, mortality) was greater than 5000 mg/kg-day; with Apis mellifera (dermal), greater than 100 µg/piece; in the series with Apis mellifera (oral, unspecified) it was greater than 116 µg/piece; in the series on Colinus virginianus (acute, oral, mortality), 3780 mg/kg-day. Besides, the figures for the NOAEL in the series on Rattus norvegicus (reproduction developmental), in the series with Oryctolagus sp. and with Mus musculus were 30 mg/kg-day, 10 mg/kg-day and 9.2 mg/kg-day, respectively. Besides, the LC50 with Oncorhynchus mykiss was 0.18 µg/mL (≈ 0.422 µM); in the series on Colinus virginianus (acute, oral, diet, mortality), greater than 1260 mg/kg-day.
